Like-named read-outs stand apart in the source and are kept apart here.
Experiments:
Test in all cases: biochemical
Set-up in all cases: Eurofins KinaseProfiler full panel at Km ATP, residual kinase activity (%) relative to DMSO
[1] = biological target: T1, MEK2(h) (Homo sapiens, UniProt P36507)
T1 construct: gene MAP2K2
Method in brief: (§1)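 Two 10 µM single-concentration screens were run: a competition-binding screen, in which DNA-tagged kinase bound to immobilized ligands was quantified by qPCR, and a radiometric activity panel at Km ATP. Each is expressed as residual kinase activity (%).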

[2] = biological target: T2, PDGFRα(h) (Homo sapiens, UniProt P16234)
T2 construct: gene PDGFRA
T2 sequence (P16234 whole entry): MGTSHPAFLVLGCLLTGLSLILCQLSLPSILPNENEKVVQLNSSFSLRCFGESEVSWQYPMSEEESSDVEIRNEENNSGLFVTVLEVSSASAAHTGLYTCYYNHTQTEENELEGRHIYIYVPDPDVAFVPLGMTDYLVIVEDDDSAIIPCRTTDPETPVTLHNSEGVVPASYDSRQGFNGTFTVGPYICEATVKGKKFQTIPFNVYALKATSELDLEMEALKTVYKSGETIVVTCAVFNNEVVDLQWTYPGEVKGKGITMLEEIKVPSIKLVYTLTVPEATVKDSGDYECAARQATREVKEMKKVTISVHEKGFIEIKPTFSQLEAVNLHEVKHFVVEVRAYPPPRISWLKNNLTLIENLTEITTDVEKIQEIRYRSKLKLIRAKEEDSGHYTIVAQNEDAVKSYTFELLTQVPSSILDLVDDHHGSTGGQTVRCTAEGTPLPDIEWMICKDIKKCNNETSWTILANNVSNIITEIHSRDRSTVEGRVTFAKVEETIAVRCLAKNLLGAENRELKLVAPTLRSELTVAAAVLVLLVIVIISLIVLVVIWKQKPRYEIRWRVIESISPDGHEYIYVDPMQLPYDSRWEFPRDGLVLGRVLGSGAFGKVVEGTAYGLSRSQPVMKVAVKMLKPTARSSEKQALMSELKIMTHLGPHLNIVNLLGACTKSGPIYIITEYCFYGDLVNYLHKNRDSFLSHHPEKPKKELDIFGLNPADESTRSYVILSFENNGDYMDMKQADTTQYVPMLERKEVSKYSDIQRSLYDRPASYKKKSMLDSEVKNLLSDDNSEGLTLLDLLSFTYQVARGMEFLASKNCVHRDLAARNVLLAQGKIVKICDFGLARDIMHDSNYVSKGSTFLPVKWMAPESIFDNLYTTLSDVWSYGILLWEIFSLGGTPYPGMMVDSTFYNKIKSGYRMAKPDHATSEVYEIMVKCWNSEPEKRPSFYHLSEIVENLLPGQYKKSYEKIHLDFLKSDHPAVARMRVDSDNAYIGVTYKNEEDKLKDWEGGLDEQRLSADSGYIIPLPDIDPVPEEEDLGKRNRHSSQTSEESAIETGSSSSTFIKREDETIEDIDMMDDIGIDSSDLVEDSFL
Method in brief: as §1

[3] = biological target: T3, NIM1(h) (Homo sapiens, UniProt Q8IY84)
T3 construct: gene NIM1K
T3 sequence (Q8IY84 whole entry): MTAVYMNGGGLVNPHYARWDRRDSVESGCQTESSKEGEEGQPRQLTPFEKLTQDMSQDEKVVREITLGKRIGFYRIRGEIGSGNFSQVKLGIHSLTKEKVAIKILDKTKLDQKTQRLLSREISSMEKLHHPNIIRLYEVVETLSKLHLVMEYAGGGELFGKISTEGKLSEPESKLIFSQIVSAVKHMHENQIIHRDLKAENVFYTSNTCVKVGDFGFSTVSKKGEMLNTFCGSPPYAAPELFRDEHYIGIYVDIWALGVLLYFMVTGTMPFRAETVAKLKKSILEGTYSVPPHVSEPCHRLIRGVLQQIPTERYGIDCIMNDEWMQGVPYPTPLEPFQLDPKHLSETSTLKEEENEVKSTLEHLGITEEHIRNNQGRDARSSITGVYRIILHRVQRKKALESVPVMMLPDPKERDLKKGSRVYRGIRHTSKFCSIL
Method in brief: as §1

[4] = biological target: T4, IGF-1R(h) (Homo sapiens, UniProt P08069)
T4 construct: gene IGF1R
T4 sequence (P08069 whole entry): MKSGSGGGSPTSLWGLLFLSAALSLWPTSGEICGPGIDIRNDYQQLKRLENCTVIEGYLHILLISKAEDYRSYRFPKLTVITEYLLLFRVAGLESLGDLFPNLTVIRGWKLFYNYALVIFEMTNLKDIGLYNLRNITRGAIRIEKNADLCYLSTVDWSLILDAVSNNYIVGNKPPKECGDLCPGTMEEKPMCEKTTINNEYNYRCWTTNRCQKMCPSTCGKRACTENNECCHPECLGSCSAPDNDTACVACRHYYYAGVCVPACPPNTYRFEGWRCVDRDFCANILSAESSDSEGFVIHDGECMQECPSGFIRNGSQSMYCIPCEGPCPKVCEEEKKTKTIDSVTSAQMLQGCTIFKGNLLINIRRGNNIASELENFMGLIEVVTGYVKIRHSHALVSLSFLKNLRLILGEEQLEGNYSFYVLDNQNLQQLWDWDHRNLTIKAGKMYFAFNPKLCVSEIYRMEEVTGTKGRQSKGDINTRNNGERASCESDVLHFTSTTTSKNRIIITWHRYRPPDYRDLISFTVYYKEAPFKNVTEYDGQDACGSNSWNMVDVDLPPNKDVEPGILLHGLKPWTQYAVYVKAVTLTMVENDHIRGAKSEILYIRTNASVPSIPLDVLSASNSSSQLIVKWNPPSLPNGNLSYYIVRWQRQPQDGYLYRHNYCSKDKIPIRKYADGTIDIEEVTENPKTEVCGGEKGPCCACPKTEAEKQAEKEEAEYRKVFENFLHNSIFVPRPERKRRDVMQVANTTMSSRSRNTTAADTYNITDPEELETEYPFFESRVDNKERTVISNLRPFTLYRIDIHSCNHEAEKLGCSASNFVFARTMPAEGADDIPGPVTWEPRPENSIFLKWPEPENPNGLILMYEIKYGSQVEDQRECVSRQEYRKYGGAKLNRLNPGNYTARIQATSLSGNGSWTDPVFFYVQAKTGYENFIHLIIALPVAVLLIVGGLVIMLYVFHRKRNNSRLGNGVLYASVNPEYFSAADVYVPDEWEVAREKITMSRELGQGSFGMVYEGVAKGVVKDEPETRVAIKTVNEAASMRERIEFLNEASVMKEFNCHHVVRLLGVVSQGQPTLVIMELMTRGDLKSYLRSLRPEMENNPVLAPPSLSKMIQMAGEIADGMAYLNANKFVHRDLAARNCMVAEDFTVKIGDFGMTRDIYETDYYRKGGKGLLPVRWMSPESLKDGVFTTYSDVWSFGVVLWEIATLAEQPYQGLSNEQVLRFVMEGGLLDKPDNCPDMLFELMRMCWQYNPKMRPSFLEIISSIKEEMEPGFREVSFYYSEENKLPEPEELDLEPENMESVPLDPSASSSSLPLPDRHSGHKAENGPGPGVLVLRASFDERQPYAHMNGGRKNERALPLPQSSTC
Method in brief: as §1

[5] = biological target: T5, Mer(h) (Homo sapiens, UniProt Q12866)
T5 construct: gene MERTK
T5 sequence (Q12866 1-999): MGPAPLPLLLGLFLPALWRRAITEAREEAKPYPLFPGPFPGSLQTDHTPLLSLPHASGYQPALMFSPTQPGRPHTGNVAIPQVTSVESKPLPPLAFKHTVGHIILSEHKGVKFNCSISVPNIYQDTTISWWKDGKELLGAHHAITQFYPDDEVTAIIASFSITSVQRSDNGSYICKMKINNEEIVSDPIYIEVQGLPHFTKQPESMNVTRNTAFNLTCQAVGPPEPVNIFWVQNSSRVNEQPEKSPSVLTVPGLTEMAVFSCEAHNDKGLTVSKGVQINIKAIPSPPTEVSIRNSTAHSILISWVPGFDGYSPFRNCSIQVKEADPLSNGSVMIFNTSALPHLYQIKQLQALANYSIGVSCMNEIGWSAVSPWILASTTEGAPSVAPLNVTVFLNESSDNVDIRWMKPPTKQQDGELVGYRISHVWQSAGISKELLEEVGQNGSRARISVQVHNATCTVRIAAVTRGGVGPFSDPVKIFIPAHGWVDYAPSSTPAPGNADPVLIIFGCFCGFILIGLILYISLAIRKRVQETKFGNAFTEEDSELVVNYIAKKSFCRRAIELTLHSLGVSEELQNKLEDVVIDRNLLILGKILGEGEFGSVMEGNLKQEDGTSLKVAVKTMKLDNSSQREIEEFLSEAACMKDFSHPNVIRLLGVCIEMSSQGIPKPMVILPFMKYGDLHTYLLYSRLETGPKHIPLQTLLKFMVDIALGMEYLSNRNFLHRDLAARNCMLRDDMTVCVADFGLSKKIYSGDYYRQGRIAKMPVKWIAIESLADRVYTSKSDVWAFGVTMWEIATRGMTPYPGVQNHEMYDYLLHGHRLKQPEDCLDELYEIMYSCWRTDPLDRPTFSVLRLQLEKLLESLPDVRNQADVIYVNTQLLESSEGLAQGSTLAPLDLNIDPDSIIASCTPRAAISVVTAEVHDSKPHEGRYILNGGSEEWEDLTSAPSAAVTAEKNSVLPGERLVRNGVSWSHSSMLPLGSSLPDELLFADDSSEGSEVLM
Method in brief: as §1

[6] = biological target: T6, Itk(h) (Homo sapiens, UniProt Q08881)
T6 sequence (Q08881 1-620): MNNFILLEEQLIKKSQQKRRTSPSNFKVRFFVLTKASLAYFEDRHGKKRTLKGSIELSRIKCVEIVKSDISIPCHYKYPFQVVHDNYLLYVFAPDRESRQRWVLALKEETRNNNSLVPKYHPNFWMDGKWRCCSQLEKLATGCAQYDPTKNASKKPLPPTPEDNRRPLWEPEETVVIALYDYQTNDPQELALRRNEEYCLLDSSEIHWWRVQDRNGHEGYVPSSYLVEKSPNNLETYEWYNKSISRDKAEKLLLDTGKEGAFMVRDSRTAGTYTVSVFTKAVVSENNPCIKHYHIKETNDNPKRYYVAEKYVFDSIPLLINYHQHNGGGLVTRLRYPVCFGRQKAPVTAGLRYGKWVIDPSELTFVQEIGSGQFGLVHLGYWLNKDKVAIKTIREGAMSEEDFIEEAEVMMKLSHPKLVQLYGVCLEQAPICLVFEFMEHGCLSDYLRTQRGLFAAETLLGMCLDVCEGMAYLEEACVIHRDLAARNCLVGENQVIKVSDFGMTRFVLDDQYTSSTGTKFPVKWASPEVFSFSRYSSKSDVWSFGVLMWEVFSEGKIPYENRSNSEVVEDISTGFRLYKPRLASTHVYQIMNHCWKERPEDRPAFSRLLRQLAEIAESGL
Method in brief: as §1

[7] = biological target: Lck(h) activated (Homo sapiens, UniProt P06239)
Lck(h) activated, sequence (P06239 whole entry): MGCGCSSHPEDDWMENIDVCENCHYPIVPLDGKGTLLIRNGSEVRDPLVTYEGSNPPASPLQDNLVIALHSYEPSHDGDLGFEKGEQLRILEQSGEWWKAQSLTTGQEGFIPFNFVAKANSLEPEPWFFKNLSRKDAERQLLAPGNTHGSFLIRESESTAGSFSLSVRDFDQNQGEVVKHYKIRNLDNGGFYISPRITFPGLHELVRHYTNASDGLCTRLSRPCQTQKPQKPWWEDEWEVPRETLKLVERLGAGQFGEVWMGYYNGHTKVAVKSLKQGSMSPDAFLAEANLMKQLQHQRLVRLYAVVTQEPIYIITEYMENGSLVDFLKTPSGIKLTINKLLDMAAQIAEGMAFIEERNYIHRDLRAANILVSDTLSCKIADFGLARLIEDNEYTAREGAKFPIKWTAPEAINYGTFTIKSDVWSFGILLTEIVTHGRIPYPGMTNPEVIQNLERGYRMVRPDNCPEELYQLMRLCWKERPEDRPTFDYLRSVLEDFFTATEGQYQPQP
Method in brief: as §1

[8] = biological target: DYRK1A(h) (Homo sapiens, UniProt Q13627)
Method in brief: as §1

[9] = biological target: T7, Arg(m) (Mus musculus, UniProt Q4JIM5)
T7 construct: gene Abl2
T7 sequence (Q4JIM5 whole entry): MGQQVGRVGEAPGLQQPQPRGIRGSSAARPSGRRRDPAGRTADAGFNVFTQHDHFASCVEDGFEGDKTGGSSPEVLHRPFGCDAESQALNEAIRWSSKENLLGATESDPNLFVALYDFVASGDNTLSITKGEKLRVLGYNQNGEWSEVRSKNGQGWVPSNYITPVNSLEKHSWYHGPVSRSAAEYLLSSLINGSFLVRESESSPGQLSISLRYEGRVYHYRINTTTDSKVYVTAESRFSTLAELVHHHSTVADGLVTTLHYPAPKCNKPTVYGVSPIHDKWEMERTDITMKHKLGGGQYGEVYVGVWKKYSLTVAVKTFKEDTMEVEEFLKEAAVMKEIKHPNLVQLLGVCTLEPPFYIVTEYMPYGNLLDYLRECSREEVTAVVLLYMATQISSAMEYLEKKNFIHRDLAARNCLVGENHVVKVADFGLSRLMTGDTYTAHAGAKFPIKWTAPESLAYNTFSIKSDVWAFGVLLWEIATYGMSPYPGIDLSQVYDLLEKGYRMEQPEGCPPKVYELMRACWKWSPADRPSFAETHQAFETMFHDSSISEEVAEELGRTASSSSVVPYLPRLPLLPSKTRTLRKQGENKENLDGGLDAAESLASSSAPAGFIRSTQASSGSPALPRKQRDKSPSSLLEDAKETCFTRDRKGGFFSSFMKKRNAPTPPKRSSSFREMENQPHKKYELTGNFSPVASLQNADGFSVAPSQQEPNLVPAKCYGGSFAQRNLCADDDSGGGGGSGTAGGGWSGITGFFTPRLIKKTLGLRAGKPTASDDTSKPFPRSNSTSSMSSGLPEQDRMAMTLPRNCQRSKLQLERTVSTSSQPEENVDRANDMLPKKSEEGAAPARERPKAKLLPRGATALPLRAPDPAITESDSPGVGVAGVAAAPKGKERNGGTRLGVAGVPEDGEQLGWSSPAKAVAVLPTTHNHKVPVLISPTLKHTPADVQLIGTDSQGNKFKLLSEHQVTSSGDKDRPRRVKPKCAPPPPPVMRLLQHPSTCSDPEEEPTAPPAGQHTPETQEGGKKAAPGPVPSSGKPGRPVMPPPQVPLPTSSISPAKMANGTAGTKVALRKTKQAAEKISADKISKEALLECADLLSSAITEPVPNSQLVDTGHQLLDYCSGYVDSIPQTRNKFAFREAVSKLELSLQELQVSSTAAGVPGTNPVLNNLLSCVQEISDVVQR
Method in brief: as §1

[10] = read-out: Residual activity (%) Spautin-1 5aa
[11] = read-out: Residual activity (%) 5as
[12] = read-out: Residual activity (%) 5at
[13] = read-out: Residual activity (%) 5ay

T1 sequence (P36507 whole entry): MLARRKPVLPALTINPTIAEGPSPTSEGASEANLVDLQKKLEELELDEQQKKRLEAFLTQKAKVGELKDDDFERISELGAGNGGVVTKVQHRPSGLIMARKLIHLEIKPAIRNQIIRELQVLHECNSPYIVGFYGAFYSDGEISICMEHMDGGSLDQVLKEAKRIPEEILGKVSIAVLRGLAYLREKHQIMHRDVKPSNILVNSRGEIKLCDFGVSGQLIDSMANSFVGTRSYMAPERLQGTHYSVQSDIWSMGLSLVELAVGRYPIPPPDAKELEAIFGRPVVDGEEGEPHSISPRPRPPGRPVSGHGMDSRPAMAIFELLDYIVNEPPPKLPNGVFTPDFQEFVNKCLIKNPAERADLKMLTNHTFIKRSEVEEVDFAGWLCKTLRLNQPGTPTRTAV

`Fc1ccc(CNc2ncnc3ccc(F)cc23)cc1` [5aa, 6-Fluoro-N-(4-fluorobenzyl)-4-Quinazolinamine] showed a remaining activity at 10 µM [1, 10] of 92%, a remaining activity at 10 µM [2, 10] of 111% and a remaining activity at 10 µM [3, 10] of 108%. It also gave a remaining activity at 10 µM [4, 10] of 90%, a remaining activity at 10 µM [5, 10] of 83% and a remaining activity at 10 µM [6, 10] of 117%. For the same compound, the remaining activity at 10 µM [7, 10] was 93%, the remaining activity at 10 µM [8, 10] was 74% and the remaining activity at 10 µM [9, 10] was 91%.
Work on `Fc1ccc(CCNc2ncnc3ccc(F)cc23)cc1` [5as, 6-Fluoro-N-[2-(4-Fluorophenyl)Ethyl]-4-Quinazolinamine] yielded a remaining activity at 10 µM [1, 11] of 96%, a remaining activity at 10 µM [2, 11] of 90% and a remaining activity at 10 µM [3, 11] of 113%. The remaining activity at 10 µM [4, 11] was 83%, the remaining activity at 10 µM [5, 11] was 83% and the remaining activity at 10 µM [6, 11] was 97%. For the same compound, the remaining activity at 10 µM [7, 11] was 100%, the remaining activity at 10 µM [8, 11] was 68% and the remaining activity at 10 µM [9, 11] was 105%.
Work on `Fc1ccc2ncnc(NCCc3ccc(Cl)cc3)c2c1` [5at, N-[2-(4-Chlorophenyl)Ethyl]-6-Fluoro-4-Quinazolinamine] yielded a remaining activity at 10 µM [1, 12] of 99%, a remaining activity at 10 µM [2, 12] of 95% and a remaining activity at 10 µM [3, 12] of 110%. The remaining activity at 10 µM [4, 12] was 83%, the remaining activity at 10 µM [5, 12] was 89% and the remaining activity at 10 µM [6, 12] was 103%. The remaining activity at 10 µM [7, 12] was 91%, the remaining activity at 10 µM [8, 12] was 63% and the remaining activity at 10 µM [9, 12] was 98%.
`COc1ccc2ncnc(Nc3cccc(F)c3)c2c1` [5ay, N-(3-Fluorophenyl)-6-Methoxy-4-Quinazolinamine] gave a remaining activity at 10 µM [1, 13] of 95%, a remaining activity at 10 µM [2, 13] of 101% and a remaining activity at 10 µM [3, 13] of 97%. For the same compound, the remaining activity at 10 µM [4, 13] was 101%, the remaining activity at 10 µM [5, 13] was 68% and the remaining activity at 10 µM [6, 13] was 88%. It also gave a remaining activity at 10 µM [7, 13] of 73%, a remaining activity at 10 µM [8, 13] of 29% and a remaining activity at 10 µM [9, 13] of 83%.
